Experiment [1] addresses T1, PD-L1 (Homo sapiens, UniProt Q9NZQ7).
T1 construct: determine if they can specifically dimerize the extracellular domains of PD-L1
Kind of experiment: PD-L1/PD-L1 dimerization biochemical protein-protein interaction assay (ALPHA). The format is binding. As to conditions: compound-induced PD-L1 dimerization, head prints '1 nM' (0.5 nM His-tagged PD-L1 and 0.5 nM FLAG-tagged PD-L1), read-out: AC50 PDL1 Dimer Alpha 1 nM. The essentials: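 ALPHA proximity assay of compound-induced dimerization of 0.5 nM His-tagged and 0.5 nM FLAG-tagged PD-L1 extracellular domains in Hepes pH 7.4 buffer, 2 h at 25 °C. Anti-His acceptor then anti-FLAG donor beads, 60 min each; AC50 from four-parameter fit.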

The target of experiment [2] is T2, PD-1/PD-L1 interaction (Homo sapiens, UniProt Q9NZQ7).
T2 construct: expressed in transfected cells; host or cells: CHO cells (aAPC-PD-L1) co-cultured with Jurkat cells overexpressing PD-1 and an NFAT-luciferase reporter
Kind of experiment: PD-1/PD-L1 NFAT reporter co-culture assay. It is filed as cell-based. Conditions: Jurkat PD-1 NFAT-luciferase cells co-cultured with aAPC-PD-L1 CHO cells, 6 hrs at 37° C.; read-out: EC50 NFAT Luciferase. Summed up:
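Jurkat cells overexpressing PD-1 with NFAT-luciferase mixed with compounds and plated onto CHO aAPCs expressing anti-CD3 and PD-L1, RPMI with 2% FBS. Co-culture 6 h at 37 °C; luminescence read with ONE-Glo. EC50 from four-parameter fit.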

Experiment [3] concerns the target PD-1/PD-L1 (Homo sapiens, UniProt Q9NZQ7). Description: PD-1/PD-L1 biochemical protein-protein interaction assay (ALPHA). The format is binding. Conditions: 0.3 nM His tagged PD-L1, 2.5 nM biotinylated Fc-PD-1, 60 minutes at 25° C., read-out: IC50 PD-L1-PD-1 Alpha IC50-mono PD-L1-fcP-D1. Summed up: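 Extracellular-domain binding of His-tagged PD-L1 (0.3 nM final) to biotinylated Fc-PD-1 (2.5 nM final) was measured by ALPHA in 25 mM Hepes pH 7.4, 150 mM NaCl, 3.4 mM EDTA, 0.005% Tween 20, 0.01% BSA. After 60 min at 25° C, anti-His acceptor and streptavidin donor beads were added; IC50 from four-parameter fits.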

SMILES strings stand for the structures.

The values that follow come from patent US12590062B2, “PD-1/PD-L1 inhibitors” (Gilead Sciences, Inc., priority 2017, dated 2026).

As a reminder, the AC50 is the concentration giving half of the maximal activity seen. As usually defined, the EC50 is the midpoint of the concentration-response curve. The term IC50 denotes the midpoint of a concentration-inhibition curve.

T2 sequence (Q9NZQ7 19-290): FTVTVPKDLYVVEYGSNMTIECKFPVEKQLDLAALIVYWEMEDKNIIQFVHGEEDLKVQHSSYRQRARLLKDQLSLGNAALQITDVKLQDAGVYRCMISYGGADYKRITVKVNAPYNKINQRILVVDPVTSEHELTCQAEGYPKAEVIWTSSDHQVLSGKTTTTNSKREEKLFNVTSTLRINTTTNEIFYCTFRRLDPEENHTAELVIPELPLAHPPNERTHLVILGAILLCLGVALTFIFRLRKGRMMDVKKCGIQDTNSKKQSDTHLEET
PD-1/PD-L1, sequence (Q9NZQ7 19-238 limits assumed): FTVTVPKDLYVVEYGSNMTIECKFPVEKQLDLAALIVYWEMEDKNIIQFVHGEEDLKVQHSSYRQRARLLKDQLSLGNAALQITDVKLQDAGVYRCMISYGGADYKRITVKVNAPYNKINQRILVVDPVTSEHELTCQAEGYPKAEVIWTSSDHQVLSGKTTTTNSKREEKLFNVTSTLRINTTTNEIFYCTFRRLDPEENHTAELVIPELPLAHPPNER
T1 sequence (Q9NZQ7 19-238 limits assumed): as above
T1 sequence (Q9NZQ7 19-238 limits assumed): as above

Turning to `Cc1c(COc2cc(OCc3cncc(C#N)c3)c(CNCCO)cc2Cl)cccc1-c1cccc(-c2ccc(C3CCCN3)cc2)c1C` (stereo not drawn) [Example 379, 5-((4-chloro-5-((2,2′-dimethyl-4″-(pyrrolidin-2-yl)-[1,1′:3′,1″-terphenyl]-3-yl)methoxy)-2-(((2-hydroxyethyl)amino)methyl)phenoxy)methyl)nicotinonitrile], the half-maximal activity concentration (AC50) in experiment [1] is 153 nM. Also, the EC50 in experiment [2] turned out to be 415 nM. In addition, in experiment [3], the half-maximal inhibitory concentration (IC50) was 2.38 nM.

With `COc1nc(-c2cccc(-c3cccc4c3CC[C@@H]4Oc3nc(OC)c(CN4CC[C@H](C(=O)O)C4)cc3Cl)c2Cl)ccc1CN1CC(C)(O)C1` [Example 706], the concentration at half-maximal activity (AC50) in experiment [1] stood at 42.8 nM. In addition, the EC50 in experiment [2] was 14 nM. Also, the half-maximal inhibitory concentration (IC50) in experiment [3] was 0.064 nM.

As to `COc1nc(O[C@H]2CCc3c(-c4cccc(-c5ccc(CNC[C@@H]6CCC(=O)N6)cc5)c4Cl)cccc32)c(Cl)cc1CN[C@@](C)(CO)C(=O)O` [Example 731], in experiment [1], the half-maximal activity concentration (AC50) was found to be 16 nM. For the same molecule, the concentration giving a half-maximal response (EC50) in experiment [2] was found to be 26 nM. For the same molecule, in experiment [3], the IC50 was 0.064 nM.

On to `COc1nc(O[C@H]2CCc3c(-c4cccc(-c5cnc6c(CNC[C@@H]7CCC(=O)N7)cn(C)c6n5)c4Cl)cccc32)c(Cl)cc1CN1CC(C(=O)O)C1` [Example 529], for which the AC50 in experiment [1] is 56.2 nM. Also, the concentration for a half-maximal effect (EC50) in experiment [2] turned out to be 165 nM. In addition, the half-maximal inhibitory concentration (IC50) in experiment [3] worked out at 0.064 nM.

On to `Cc1c(COc2cc(OCc3cncc(C#N)c3)c(CNC[C@@H](O)CC(=O)O)cc2Cl)cccc1-c1cccc(-c2ccc(O[C@H]3CCCN(CCO)C3)cc2)c1C` [Example 354, (S)-4-((5-chloro-2-((5-cyanopyridin-3-yl)methoxy)-4-((4″-(((S)-1-(2-hydroxyethyl)piperidin-3-yl)oxy)-2,2′-dimethyl-[1,1′:3′,1″-terphenyl]-3-yl)methoxy)benzyl)amino)-3-hydroxybutanoic acid], for which the half-maximal activity concentration (AC50) in experiment [1] is 342 nM. Besides, the EC50 in experiment [2] amounted to 1880 nM. Moreover, the IC50 in experiment [3] was found to be 0.241 nM.

Take `Cc1c(COc2cc(OCc3cncc(C#N)c3)c(CNC[C@@H](O)CC(=O)O)cc2Cl)cccc1-c1cccc(-c2cn(C3CCNCC3)nn2)c1C` [Example 330, (S)-4-((5-chloro-2-((5-cyanopyridin-3-yl)methoxy)-4-((2,2′-dimethyl-3′-(1-(piperidin-4-yl)-1H-1,2,3-triazol-4-yl)-[1,1′-biphenyl]-3-yl)methoxy)benzyl)amino)-3-hydroxybutanoic acid]: the AC50 in experiment [1] worked out at 209 nM. In addition, the half-maximal effective concentration (EC50) in experiment [2] was 1640 nM. Further, the IC50 in experiment [3] amounted to 0.188 nM.

Take `Cc1c(COc2cc(OCc3cncc(C#N)c3)c(CN[C@@](C)(CO)C(=O)O)cc2Cl)cccc1-c1cccc(-c2ccc(C3CCCN3CCO)cc2)c1C` (stereo partly drawn) [Example 374, (2S)-2-((5-chloro-2-((5-cyanopyridin-3-yl)methoxy)-4-((4″-(1-(2-hydroxyethyl)pyrrolidin-2-yl)-2,2′-dimethyl-[1,1′:3′,1″-terphenyl]-3-yl)methoxy)benzyl)amino)-3-hydroxy-2-methylpropanoic acid]: the AC50 in experiment [1] stood at 165 nM. Further, in experiment [2], the concentration for a half-maximal effect (EC50) came out at 788 nM. The half-maximal inhibitory concentration (IC50) in experiment [3] was 0.136 nM.

On to `Cc1c(COc2cc(OCc3cncc(C#N)c3)c(CN[C@@](C)(CO)C(=O)O)cc2Cl)cccc1-c1cccc(-c2ccc3c(c2)CCC3N2CC(C)C2)c1C` (stereo partly drawn) [Example 371, (2S)-2-((5-chloro-2-((5-cyanopyridin-3-yl)methoxy)-4-((2,2′-dimethyl-3′-(1-(3-methylazetidin-1-yl)-2,3-dihydro-1H-inden-5-yl)-[1,1′-biphenyl]-3-yl)methoxy)benzyl)amino)-3-hydroxy-2-methylpropanoic acid], for which the half-maximal activity concentration (AC50) in experiment [1] was 78 nM. In addition, the concentration giving a half-maximal response (EC50) in experiment [2] came to 210 nM. Besides, the IC50 in experiment [3] turned out to be 0.074 nM.

As for `COc1nc(-c2cccc(-c3cccc4c3CC[C@@H]4Oc3nc(OCC#N)c(CNC[C@@H]4CCC(=O)N4)cc3Cl)c2Cl)ccc1CNC[C@@H]1CCC(=O)N1` [Example 658], the AC50 in experiment [1] worked out at 78.5 nM. Further, the EC50 in experiment [2] is 51 nM. The concentration for half-maximal inhibition (IC50) in experiment [3] was 0.221 nM.

In the case of `Cc1c(COc2cc(OCc3cncc(C#N)c3)c(CN[C@@](C)(CO)C(=O)O)cc2Cl)cccc1-c1cccc(-c2ccc3[nH]c([C@@H]4CCCN4)nc3c2)c1C` [Example 299, (S)-2-((5-chloro-2-((5-cyanopyridin-3-yl)methoxy)-4-((2,2′-dimethyl-3′-(2-((S)-pyrrolidin-2-yl)-1H-benzo[d]imidazol-5-yl)-[1,1′-biphenyl]-3-yl)methoxy)benzyl)amino)-3-hydroxy-2-methylpropanoic acid], the AC50 in experiment [1] turned out to be 162 nM. Further, the concentration giving a half-maximal response (EC50) in experiment [2] was 326 nM. For the same molecule, the IC50 in experiment [3] was determined as 0.761 nM.

`C[C@@](CO)(NCc1cc(Cl)c(O[C@H]2CCc3c(-c4cccc(-c5ccc(S(N)(=O)=O)cc5)c4Cl)cccc32)nc1OCc1cncc(C#N)c1)C(=O)O` [Example 671]: in experiment [1], the AC50 was no less than 10000 nM. Besides, the EC50 in experiment [2] turned out to be 235 nM. In experiment [3], the half-maximal inhibitory concentration (IC50) came to 0.159 nM.

On to `CCOC(=O)[C@@H]1CCN(Cc2cc(Cl)c(O[C@H]3CCc4c(-c5cccc(-c6ccc(CN7CC8(C7)CN(C(C)=O)C8)cc6)c5Cl)cccc43)nc2OC)C1` [Example 770], for which the AC50 in experiment [1] was 700 nM. The EC50 in experiment [2] came out at 856 nM. In experiment [3], the IC50 amounted to 0.418 nM.

As to `CC(C)(NCc1cc(Br)c(OCc2cccc(-c3cccc(-c4ccc5c(c4)C[C@@H](N)C5)c3Cl)c2Cl)nc1OCc1cncc(S(C)(=O)=O)c1)C(=O)O` [Example 545], the AC50 in experiment [1] came to 24.4 nM. Moreover, the EC50 in experiment [2] was found to be 145 nM. Moreover, in experiment [3], the IC50 is 0.089 nM.

As for `COc1nc(O[C@H]2CCc3c(-c4cccc(-c5ccc(CNC[C@@H]6CCC(=O)N6)cc5)c4Cl)cccc32)c(Cl)cc1CN1CCC[C@@H]1C(=O)O` [Example 724], the AC50 in experiment [1] turned out to be 21.2 nM. In experiment [2], the EC50 was 120 nM. Also, the IC50 in experiment [3] was 0.064 nM.

On to `COc1nc(O[C@H]2CCc3c(-c4cccc(-c5cnc(CN6CC7(C6)CN(C(C)=O)C7)c(OC)n5)c4Cl)cccc32)c(Cl)cc1CN1CC[C@@H](C(=O)O)C1` [Example 767], for which the half-maximal activity concentration (AC50) in experiment [1] stood at 75.7 nM. Besides, the 50% effective concentration (EC50) in experiment [2] turned out to be 57 nM. The IC50 in experiment [3] was found to be 0.064 nM.

For the molecule `COc1cc(-c2cccc(-c3cccc(COc4cc(OCc5cncc(C#N)c5)c(CNC[C@@H](O)CC(=O)O)cc4Cl)c3C)c2C)ccc1CN` [Example 507], the AC50 in experiment [1] was 262 nM. In experiment [2], the 50% effective concentration (EC50) stood at 210 nM. In experiment [3], the half-maximal inhibitory concentration (IC50) worked out at 0.693 nM.

In the case of `COc1nc(-c2cccc(-c3cccc4c3CC[C@@H]4Oc3nc(OCc4cncc(C#N)c4)c(CN[C@@](C)(CO)C(=O)O)cc3Cl)c2Cl)ccc1CN1CC2(C1)CN(C(=O)OC(C)(C)C)C2` [Example 682], the AC50 in experiment [1] worked out at 194 nM. For the same molecule, the 50% effective concentration (EC50) in experiment [2] was determined as 243 nM. Moreover, in experiment [3], the concentration for half-maximal inhibition (IC50) was 0.421 nM.

For the molecule `COc1nc(O[C@H]2CCc3c(-c4cccc(-c5cnc(CNC[C@@H]6CCC(=O)N6)c(OC)n5)c4Cl)cccc32)c(Cl)cc1CN[C@@](C)(CO)C(=O)O` [Example 649], the concentration at half-maximal activity (AC50) in experiment [1] amounted to 38.8 nM. For the same molecule, the half-maximal effective concentration (EC50) in experiment [2] turned out to be 29 nM. The IC50 in experiment [3] is 0.064 nM.

Turning to `COc1nc(O[C@H]2CCc3c(-c4cccc(-c5ccc(CNC[C@@H]6CCC(=O)N6)cc5)c4Cl)cccc32)c(Cl)cc1CN1CC[C@@H](C(=O)O)C1` [Example 722], in experiment [1], the half-maximal activity concentration (AC50) came out at 16 nM. Also, the 50% effective concentration (EC50) in experiment [2] was 47 nM. The half-maximal inhibitory concentration (IC50) in experiment [3] came out at 0.064 nM.
